These results are taken from PubChem BioAssay AID328 (DTP/NCI, 2004).

Where “and” joins values, the source holds several entries; their conditions need not be identical. Identical values can stand only once. Toxic doses and inconclusive results are not listed.

The assay relates to BDF1 mice, P388 leukemia ip, median survival T/C. Put plainly: NCI In Vivo Anticancer Drug Screen. Data for tumor model P388 Leukemia (intraperitoneal) in B6D2F1 (BDF1) mice. The following applies: endpoint: median survival time, higher = longer survival. An outline of the steps: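 Read-out is survival of treated animals expressed relative to the vehicle group, as a T/C ratio.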

[1] abbreviates: dose: 25.0 mg/kg/injection, schedule: Q01DX009 (ip), vehicle: saline with Tween-80.
The mark [2] stands for this setting: dose: 50.0 mg/kg/injection, schedule: Q01DX009 (ip), vehicle: saline with Tween-80.
The mark [3] stands for this setting: dose: 50.0 mg/kg/injection, schedule: Q04DX003 (ip), vehicle: saline with Tween-80.
Where [4] appears, read: dose: 100.0 mg/kg/injection, schedule: Q04DX003 (ip), vehicle: saline with Tween-80.
Where [5] appears, read: dose: 200.0 mg/kg/injection, schedule: Q04DX003 (ip), vehicle: saline with Tween-80.
Where [6] appears, read: dose: 400.0 mg/kg/injection, schedule: Q04DX003 (ip), vehicle: saline with Tween-80.
Where [7] appears, read: dose: 100.0 mg/kg/injection, schedule: Q01DX009 (ip), vehicle: saline with Tween-80.
The mark [8] stands for this setting: dose: 200.0 mg/kg/injection, schedule: Q01DX009 (ip), vehicle: saline with Tween-80.
Where [9] appears, read: dose: 12.5 mg/kg/injection, schedule: Q01DX009 (ip), vehicle: saline with Tween-80.
Setting [10] is: dose: 50.0 mg/kg/injection, schedule: Q01DX009 (ip), vehicle: saline.
The mark [11] stands for this setting: dose: 100.0 mg/kg/injection, schedule: Q01DX009 (ip), vehicle: saline.

For `CCOC(=O)c1c(N)[nH]c(SSc2[nH]c(N)c(C(=O)OCC)c2C(=O)OCC)c1C(=O)OCC`, the T/C reads like this: under setting [1], 92 % of control; under setting [2], 108 % of control; under setting [3], 109 % of control; under setting [4], 109 % of control; under setting [5], 114 % of control; under setting [6], 109 % of control.

With `Cc1ccc(N2CCN(C3=CCC(C(C)C)CC3)CC2)cc1Cl` (configuration not stated), the T/C runs as follows: (dose: 100.0 mg/kg/injection, schedule: Q01DX001 (ip), vehicle: saline with Tween-80) 105 % of control; (dose: 200.0 mg/kg/injection, schedule: Q01DX001 (ip), vehicle: saline with Tween-80) 105 % of control.

On to `CSc1ncnc2c1ncn2CO`, for which the T/C reads like this: (dose: 30.0 mg/kg/injection, schedule: Q01DX009 (ip), vehicle: Klucel (hydroxypropylcellulose) (HPC)) 110 % of control; (dose: 30.0 mg/kg/injection, schedule: Q01DX009 (ip), vehicle: saline) 108 % of control; (dose: 100.0 mg/kg/injection, schedule: Q01DX009 (ip), vehicle: Klucel (hydroxypropylcellulose) (HPC)) 150 % of control; under setting [7], 154 % of control; (dose: 120.0 mg/kg/injection, schedule: Q01DX009 (ip), vehicle: Klucel (hydroxypropylcellulose) (HPC)) 150 % of control; (dose: 150.0 mg/kg/injection, schedule: Q01DX009 (ip), vehicle: Klucel (hydroxypropylcellulose) (HPC)) 90 % of control. The T/C under setting [6] was 95 % of control.

As to `c1ccc([P+](CCN2Cc3ccccc3C2)(c2ccccc2)c2ccccc2)cc1`, the T/C runs as follows: (dose: 3.13 mg/kg/injection, schedule: Q01DX009 (ip), vehicle: saline) 99 % of control; (dose: 6.25 mg/kg/injection, schedule: Q01DX009 (ip), vehicle: saline) 114 % of control; (dose: 12.5 mg/kg/injection, schedule: Q01DX009 (ip), vehicle: saline) 105 % of control.

Turning to `CN1C2Oc3ccccc3C1Oc1ccccc12`, the T/C is 112 % of control under setting [2], 99 % of control under setting [7] and 99 % of control under setting [8].

For `Cn1nc(-c2ccccc2)nc1[N+](=O)[O-]`, the T/C is, setting by setting: under setting [9], 114 % of control; under setting [1], 97 % of control; under setting [2], 93 % of control; under setting [7], 99 % of control.

For the molecule `Nc1nc(-c2ccccc2)ns1`, the T/C was 100 % of control (dose: 25.0 mg/kg/injection, schedule: Q01DX009 (ip), vehicle: saline sonified) and 100 % of control (dose: 50.0 mg/kg/injection, schedule: Q01DX009 (ip), vehicle: saline sonified).

On to `C=Cc1ccc(Oc2ccccc2)cc1`, for which the T/C is, setting by setting: (dose: 25.0 mg/kg/injection, schedule: Q01DX009 (ip), vehicle: saline) 104 % of control; under setting [10], 104 % of control; under setting [11], 109 % of control.

In the case of `NC(=S)N/N=C/c1cc(-c2cccc(N)c2)ccn1`, the T/C by setting is: under setting [9], 154 % of control; under setting [1], 162 % of control; under setting [2], 211 % of control; (dose: 75.0 mg/kg/injection, schedule: Q01DX009 (ip), vehicle: saline with Tween-80) 178 % of control.

Turning to `CCC[As](CCC)SC1OC(COC(C)=O)C(OC(C)=O)C(OC(C)=O)C1OC(C)=O` (configuration not stated), the T/C (dose: 50.0 mg/kg/injection, schedule: Q01DX009 (ip), vehicle: saline + alcohol) was 109 % of control.

As to `COc1cc(OC)c(OC)cc1/C=C/c1ccc2ccccc2n1`, the T/C is 100 % of control under setting [4], 88 % of control under setting [5] and 88 % of control under setting [6].

As to `O=C(O)C1CCC[N-]C1.O=C(O)C1CCC[N-]C1.O=C(O)C1CCC[N-]C1.O=C(O)C1CCC[N-]C1.[Cl][Rh][Cl]` (configuration not stated), the T/C is, setting by setting: (dose: 4.0 mg/kg/injection, schedule: Q01DX009 (ip), vehicle: saline) 100 % of control; (dose: 8.0 mg/kg/injection, schedule: Q01DX009 (ip), vehicle: saline) 99 % of control; (dose: 10.0 mg/kg/injection, schedule: Q01DX009 (ip), vehicle: saline) 118 % of control; (dose: 16.0 mg/kg/injection, schedule: Q01DX009 (ip), vehicle: saline) 93 % of control; (dose: 20.0 mg/kg/injection, schedule: Q01DX009 (ip), vehicle: saline) 98 % of control; (dose: 40.0 mg/kg/injection, schedule: Q01DX009 (ip), vehicle: saline) 98 % of control. The T/C runs as follows: under setting [10], 100 % of control; under setting [11], 86 % of control; (dose: 100.0 mg/kg/injection, schedule: Q04DX003 (ip), vehicle: saline) 100 % of control; (dose: 200.0 mg/kg/injection, schedule: Q04DX003 (ip), vehicle: saline) 108 % of control; (dose: 400.0 mg/kg/injection, schedule: Q04DX003 (ip), vehicle: saline) 102 % of control.

Consider `CCc1ccc(NC(=O)c2ccccc2Cl)cc1`, for which the T/C under setting [4] is 100 % of control, the T/C under setting [5] was 91 % of control and the T/C under setting [6] is 91 % of control.

For the molecule `O=[N+]([O-])c1ccc(S/N=C\c2ccccc2)c([N+](=O)[O-])c1`, the T/C under setting [9] was 107 % of control, the T/C under setting [1] was 105 % of control and the T/C under setting [2] is 105 % of control.

For `Oc1ccc(C=Nc2ccccc2N=Cc2ccc(O)c(O)c2)cc1O`, the T/C under setting [7] is 109 % of control; the T/C under setting [4] is 110 % of control; the T/C under setting [8] is 109 % of control; the T/C under setting [5] was 105 % of control; the T/C (dose: 400.0 mg/kg/injection, schedule: Q01DX009 (ip), vehicle: saline with Tween-80) is 104 % of control; the T/C under setting [6] is 110 % of control.

Take `C[C@]12CCCC[C@@H]1CC[C@@H]1[C@@H]2[C@@H](O)C[C@]2(C)[C@@H](O)CC[C@@H]12`: the T/C is 95 % of control and 100 % of control under setting [2]; 100 % of control under setting [3]; 95 % of control (dose: 66.0 mg/kg/injection, schedule: Q04DX003 (ip), vehicle: saline with Tween-80); 95 % of control and 100 % of control under setting [7]; 122 % of control under setting [4]; 90 % of control (dose: 150.0 mg/kg/injection, schedule: Q04DX003 (ip), vehicle: saline with Tween-80). Besides, the T/C is, setting by setting: under setting [8], 90 % of control and 100 % of control; under setting [5], 100 % of control.

Consider `c1ccc(-c2cc(-c3ccccc3)[s+]s2)cc1`, for which the T/C was 111 % of control (dose: 6.25 mg/kg/injection, schedule: Q01DX009 (ip), vehicle: saline with Tween-80); 117 % of control and 124 % of control under setting [9]; 91 % of control and 110 % of control and 115 % of control under setting [1]; 98 % of control (dose: 25.0 mg/kg/injection, schedule: Q04DX003 (ip), vehicle: saline with Tween-80); 92 % of control and 113 % of control under setting [2]; 109 % of control and 115 % of control under setting [3]. Besides, the T/C under setting [7] was 98 % of control and 113 % of control; the T/C under setting [4] is 117 % of control and 118 % of control; the T/C under setting [8] was 99 % of control and 120 % of control; the T/C under setting [5] was 108 % of control; the T/C (dose: 300.0 mg/kg/injection, schedule: Q01DX009 (ip), vehicle: saline with Tween-80) was 94 % of control.

Consider `S=c1[nH]c2ccccc2s1`, for which the T/C was 109 % of control (dose: 50.0 mg/kg/injection, schedule: Q04DX003 (ip), vehicle: Klucel (hydroxypropylcellulose) (HPC)); 100 % of control (dose: 100.0 mg/kg/injection, schedule: Q01DX001 (ip), vehicle: Klucel (hydroxypropylcellulose) (HPC)); 100 % of control (dose: 100.0 mg/kg/injection, schedule: Q04DX003 (ip), vehicle: Klucel (hydroxypropylcellulose) (HPC)); 108 % of control (dose: 200.0 mg/kg/injection, schedule: Q01DX001 (ip), vehicle: Klucel (hydroxypropylcellulose) (HPC)); 100 % of control and 123 % of control (dose: 200.0 mg/kg/injection, schedule: Q04DX003 (ip), vehicle: Klucel (hydroxypropylcellulose) (HPC)); 100 % of control (dose: 400.0 mg/kg/injection, schedule: Q01DX001 (ip), vehicle: Klucel (hydroxypropylcellulose) (HPC)). Under “dose: 400.0 mg/kg/injection, schedule: Q04DX003 (ip), vehicle: Klucel (hydroxypropylcellulose) (HPC)”, the T/C is 96 % of control.

In the case of `Cc1c[n+]([O-])ccc1Br`, the T/C (dose: 6.25 mg/kg/injection, schedule: Q04DX003 (ip), vehicle: water) was 100 % of control; the T/C (dose: 12.5 mg/kg/injection, schedule: Q04DX003 (ip), vehicle: water) was 100 % of control; the T/C (dose: 25.0 mg/kg/injection, schedule: Q04DX003 (ip), vehicle: water) is 112 % of control; the T/C (dose: 50.0 mg/kg/injection, schedule: Q04DX003 (ip), vehicle: water) was 99 % of control; the T/C (dose: 100.0 mg/kg/injection, schedule: Q04DX003 (ip), vehicle: water) is 100 % of control.
